Read-outs that look alike come from different tables or passages of the source.
Biological target: T1, MRGPRX4 (Homo sapiens, UniProt Q96LA9)
T1 construct: expressed in transfected cells; host or cells: HEK293T
Assay: IP1 accumulation HTRF assay, MRGPRX4
Format: cell-based
Details: 2 h; for activation at 80 µM: log [agonist] (M) -4.09691; for activation at 16 µM: log [agonist] (M) -4.79588; for activation at 3.2 µM: log [agonist] (M) -5.49485; for activation at 0.64 µM: log [agonist] (M) -6.19382; for activation at 0.128 µM: log [agonist] (M) -6.89279; for activation at 0.0256 µM: log [agonist] (M) -7.59176
Procedure: HEK293T cells were transfected with 1 pg/cell of MRGPRX4 DNA, and the amount of DNA was kept constant at 2 pg/cell with pcDNA3.1(+) empty vector, unless otherwise specified. Twenty four hours after transfection, IP1 assay was performed as previously described ([51]). When applicable, cells were treated with 1 μM YM254890 (YM) or different concentrations of U73122 for 1 h prior to addition of agonist or buffer. After incubation for 2 h, HTRF reagents and IP1 calibration standards were added and incubated for 2 h in the dark at room temperature. Time-resolved fluorescence signals were read on the BioTek Synergy NEO-TRF Hybrid multi-mode reader (BioTek Instruments). All data were carried out in three independent experiments with three technical replicate each.
For characterization of the Tet-On Nluc-HT7-MRGPRX4-GFP10-1D4 construct, HEK293T cells were transfected as previously described with some modifications. Dox dose-response of NLuc-HT7-MRGPRX4-GFP10-1D4 DNA titration was assayed by transfecting HEK293T cells with either 1 or 2 pg/cell of NLuc-HT7-MRGPRX4-GFP10-1D4 construct. Receptor expression was induced 4 h after transfection with addition of different concentrations of dox for 20 h. For the RAMP DNA titration assay, cells were cotransfected with a constant amount of 1 pg/cell of NLuc-HT7-MRGPRX4-GFP10-1D4 DNA and 1, 0.75, 0.5, or 0 pg/cell of each HA-RAMP-OLLAS with the homogenous transfection method. Four hours after transfection, receptor expression was induced with addition of 1000 ng/ml dox. Twenty hours after induction, IP1 assay was performed.
Data reduction, standard calibration, and transformation of HTRF data were performed as previously described ([51]). Normalized IP1 values were calculated relative to the unstimulated mock-transfected cells (set to 0%) and fully stimulated MRGPRX4 (alone if applicable) (set to 100%).

[1] = SP-FLAG-Nluc-HT7-MRGX4_Tet-GFP10-1D4, read-out: normalized IP1 accumulation
[2] = SP-FLAG-Nluc-HT7-MRGX4_Tet-GFP10-1D4 no dox, read-out: normalized IP1 accumulation

T1 sequence (Q96LA9 whole entry): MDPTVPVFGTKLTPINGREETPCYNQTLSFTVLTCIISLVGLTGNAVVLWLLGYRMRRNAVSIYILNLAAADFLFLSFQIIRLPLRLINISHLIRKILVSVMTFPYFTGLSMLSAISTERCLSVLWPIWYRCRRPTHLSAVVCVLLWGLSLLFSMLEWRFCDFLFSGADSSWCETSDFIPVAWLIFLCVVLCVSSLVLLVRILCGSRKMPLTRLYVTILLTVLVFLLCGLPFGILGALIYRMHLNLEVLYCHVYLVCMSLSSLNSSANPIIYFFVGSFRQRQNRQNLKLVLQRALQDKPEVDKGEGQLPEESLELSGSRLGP

C[C@H](CCC(=O)O)[C@H]1CC[C@H]2[C@@H]3CC[C@@H]4C[C@H](O)CC[C@]4(C)[C@H]3C[C@H](O)[C@]12C [DCA, deoxycholic acid]
activation at 100 µM (HA-MRGX4-1D4, log [agonist] (M) -4, read-out: normalized IP1 accumulation): 53.9% | activation at 20 µM (HA-MRGX4-1D4, log [agonist] (M) -4.69897, read-out: normalized IP1 accumulation): 34.3% | activation at 4 µM (HA-MRGX4-1D4, log [agonist] (M) -5.39794, read-out: normalized IP1 accumulation): 19.4% | activation at 0.8 µM (HA-MRGX4-1D4, log [agonist] (M) -6.09691, read-out: normalized IP1 accumulation): 12.4% | activation at […] (HA-MRGX4-1D4, log [agonist] (M) -6.79588, read-out: normalized IP1 accumulation): 11.1% | activation at 0.032 µM (HA-MRGX4-1D4, log [agonist] (M) -7.49485, read-out: normalized IP1 accumulation): 11.4% | activation at 100 µM (MRGPRX4: 0.25pg/cell, log [DCA] (M) -4, Fig S1c, read-out: IP1 accumulation): 41.7% | activation at 20 µM (MRGPRX4: 0.25pg/cell, log [DCA] (M) -4.69897, Fig S1c, read-out: IP1 accumulation): 28.7% | activation at 4 µM (MRGPRX4: 0.25pg/cell, log [DCA] (M) -5.39794, Fig S1c, read-out: IP1 accumulation): 10.1% | activation at 100 µM (MRGPRX4: 0.5pg/cell, log [DCA] (M) -4, Fig S1c, read-out: IP1 accumulation): 53.6% | activation at 20 µM (MRGPRX4: 0.5pg/cell, log [DCA] (M) -4.69897, Fig S1c, read-out: IP1 accumulation): 33.8% | activation at 4 µM (MRGPRX4: 0.5pg/cell, log [DCA] (M) -5.39794, Fig S1c, read-out: IP1 accumulation): 14.2% | activation at 0.8 µM (MRGPRX4: 0.5pg/cell, log [DCA] (M) -6.09691, Fig S1c, read-out: IP1 accumulation): 7.76% | activation at […] (MRGPRX4: 0.5pg/cell, log [DCA] (M) -6.79588, Fig S1c, read-out: IP1 accumulation): 7.83% | activation at 0.032 µM (MRGPRX4: 0.5pg/cell, log [DCA] (M) -7.49485, Fig S1c, read-out: IP1 accumulation): 6.46% | activation at 100 µM (MRGPRX4: 1pg/cell, log [DCA] (M) -4, Fig S1c, read-out: IP1 accumulation): 62.8% | activation at 20 µM (MRGPRX4: 1pg/cell, log [DCA] (M) -4.69897, Fig S1c, read-out: IP1 accumulation): 42.9% | activation at 4 µM (MRGPRX4: 1pg/cell, log [DCA] (M) -5.39794, Fig S1c, read-out: IP1 accumulation): 19.8% | activation at 0.8 µM (MRGPRX4: 1pg/cell, log [DCA] (M) -6.09691, Fig S1c, read-out: IP1 accumulation): 13.1% | activation at […] (MRGPRX4: 1pg/cell, log [DCA] (M) -6.79588, Fig S1c, read-out: IP1 accumulation): 10.7% | activation at 0.032 µM (MRGPRX4: 1pg/cell, log [DCA] (M) -7.49485, Fig S1c, read-out: IP1 accumulation): 8.32% | activation at 100 µM (MRGPRX4: 2pg/cell, log [DCA] (M) -4, Fig S1c, read-out: IP1 accumulation): 79.9% | activation at 20 µM (MRGPRX4: 2pg/cell, log [DCA] (M) -4.69897, Fig S1c, read-out: IP1 accumulation): 51.7% | activation at 4 µM (MRGPRX4: 2pg/cell, log [DCA] (M) -5.39794, Fig S1c, read-out: IP1 accumulation): 26.6% | activation at 0.8 µM (MRGPRX4: 2pg/cell, log [DCA] (M) -6.09691, Fig S1c, read-out: IP1 accumulation): 15.7% | activation at […] (MRGPRX4: 2pg/cell, log [DCA] (M) -6.79588, Fig S1c, read-out: IP1 accumulation): 15.1% | activation at 0.032 µM (MRGPRX4: 2pg/cell, log [DCA] (M) -7.49485, Fig S1c, read-out: IP1 accumulation): 14.6% | activation at 100 µM (MRGPRX4: […], log [DCA] (M) -4, Fig S1c, read-out: IP1 accumulation): 38.8% | activation at 20 µM (MRGPRX4: […], log [DCA] (M) -4.69897, Fig S1c, read-out: IP1 accumulation): 21.2% | activation at 4 µM (MRGPRX4: […], log [DCA] (M) -5.39794, Fig S1c, read-out: IP1 accumulation): 7.81% | activation at 0.8 µM (MRGPRX4: […], log [DCA] (M) -6.09691, Fig S1c, read-out: IP1 accumulation): 3.51% | activation at 0.032 µM (MRGPRX4: […], log [DCA] (M) -7.49485, Fig S1c, read-out: IP1 accumulation): 3.48% | activation at 10 µM (MRGPRX4, DCA 10uM, Fig S1d): 28.4% | activation at 100 µM (MRGPRX4, DCA 100uM, Fig S1d, read-out: IP1 accumulation): 60.7% | activation at 100 µM (MRGPRX4 alone, log [DCA] (M) -4, Fig S3d-f, read-out: IP1 accumulation): 100% | activation at 20 µM (MRGPRX4 alone, log [DCA] (M) -4.69897, Fig S3d-f, read-out: IP1 accumulation): 66.8% | activation at 4 µM (MRGPRX4 alone, log [DCA] (M) -5.39794, Fig S3d-f, read-out: IP1 accumulation): 36.1% | activation at 0.8 µM (MRGPRX4 alone, log [DCA] (M) -6.09691, Fig S3d-f, read-out: IP1 accumulation): 26.3% | activation at […] (MRGPRX4 alone, log [DCA] (M) -6.79588, Fig S3d-f, read-out: IP1 accumulation): 23.7% | activation at 0.032 µM (MRGPRX4 alone, log [DCA] (M) -7.49485, Fig S3d-f, read-out: IP1 accumulation): 21.4% | activation at 30 µM (MRGX4 + DCA, U73122 30uM, Fig S1e): 8.48% | activation at 30 µM (MRGX4 + DCA, buffer, Fig S1e): 39.2% | activation at 100 µM (MRGX4 + DCA, 100uM, U73122 30uM, Fig S1e, read-out: IP1 accumulation): 16.7% | activation at 100 µM (MRGX4 + DCA, 100uM, buffer, Fig S1e, read-out: IP1 accumulation): 56.2% | activation at 80 µM [1]: 38.3% | activation at 16 µM [1]: 22.2% | activation at 3.2 µM [1]: 13% | activation at 0.64 µM [1]: 10.2% | activation at 0.128 µM [1]: 9.26% | activation at 0.0256 µM [1]: 9.64% | activation at 80 µM [2]: 9.13% | activation at 16 µM [2]: 7.51% | activation at 3.2 µM [2]: 9.25% | activation at 0.64 µM [2]: 7.7% | activation at 0.128 µM [2]: 7.77% | activation at 0.0256 µM [2]: 7.55% | activation at 100 µM (SP-Flag-MRGX4-1D4, log [agonist] (M) -4, read-out: normalized IP1 accumulation): 65.9% | activation at 20 µM (SP-Flag-MRGX4-1D4, log [agonist] (M) -4.69897, read-out: normalized IP1 accumulation): 34.9% | activation at 0.8 µM (SP-Flag-MRGX4-1D4, log [agonist] (M) -6.09691, read-out: normalized IP1 accumulation): 9.9% | activation at […] (SP-Flag-MRGX4-1D4, log [agonist] (M) -6.79588, read-out: normalized IP1 accumulation): 8.52% | activation at 0.032 µM (SP-Flag-MRGX4-1D4, log [agonist] (M) -7.49485, read-out: normalized IP1 accumulation): 6.84% | activation at 100 µM (SP-Flag-MRGX4-GFP10-1D4, log [agonist] (M) -4, read-out: normalized IP1 accumulation): 66.1% | activation at 20 µM (SP-Flag-MRGX4-GFP10-1D4, log [agonist] (M) -4.69897, read-out: normalized IP1 accumulation): 33.2% | activation at 4 µM (SP-Flag-MRGX4-GFP10-1D4, log [agonist] (M) -5.39794, read-out: normalized IP1 accumulation): 15.5% | activation at 0.8 µM (SP-Flag-MRGX4-GFP10-1D4, log [agonist] (M) -6.09691, read-out: normalized IP1 accumulation): 8.34% | activation at […] (SP-Flag-MRGX4-GFP10-1D4, log [agonist] (M) -6.79588, read-out: normalized IP1 accumulation): 7.34% | activation at 0.032 µM (SP-Flag-MRGX4-GFP10-1D4, log [agonist] (M) -7.49485, read-out: normalized IP1 accumulation): 7.17% | activation at 100 µM (log [agonist] (M) -4, MRGX4-transfected, individual replicates, read-out: IP1 accumulation, dose-response (Figure 1a)): 67.6% | activation at 11.111 µM (log [agonist] (M) -4.95424, MRGX4-transfected, individual replicates, read-out: IP1 accumulation, dose-response (Figure 1a)): 33.9% | activation at 1.2346 µM (log [agonist] (M) -5.90849, MRGX4-transfected, individual replicates, read-out: IP1 accumulation, dose-response (Figure 1a)): 14.9% | activation at 0.13717 µM (log [agonist] (M) -6.86273, MRGX4-transfected, individual replicates, read-out: IP1 accumulation, dose-response (Figure 1a)): 10.6%

Source: publication PMC10165273, “Itch receptor MRGPRX4 interacts with the receptor activity–modifying proteins” (The Journal of Biological Chemistry, 2023)
